The record followed here is US8148392B2, “2-indolyl imidazo [4,5-d] phenanthroline derivatives and their use in the treatment of cancer” (Lorus Therapeutics Inc., priority 2005, dated 2012).

Series [1] relates to supercoiled plasmid DNA. Kind of series: In vitro DNA cleavage assay. Type of series: biochemical. Particulars: 25 μM compound, 10 μM CuSO4, 100 μM ascorbic acid, 37° C., 30 minutes. The protocol:
Compound 3 was tested for its ability to cleave plasmid DNA in vitro in the presence of copper and the reducing agent ascorbic acid. Experiments were performed in a total of 20 μl, containing 10 mM NaH2PO4/Na2HPO4 buffer (pH 6.7), 1 μg of supercoiled plasmid DNA, 100 μM ascorbic acid, 25 μM drug compound (or vehicle), and 10 μM of CuSO4.5H20. The reaction mixture was incubated at 37° C. for 30 minutes, and 1 μl of 0.1 M EDTA was added to terminate the reaction. DNA loading buffer was added, and reactions were run at 80V for 80 minutes on a 1% agarose gel containing ethidium bromide.
To determine whether ions other than copper could suffice, DNA cleavage reactions were also carried out in the presence of zinc or iron. Reactions were performed as above, in the presence of 25 μM of CuSO4.5H20, ZnCl2, or FeCl2.4H20. […] Note that copper alone in the presence of ascorbic acid can shift the ratio of supercoiled DNA to open circular DNA.
To determine the ratios of compound to copper at which compound 3 was effective, reactions were performed as in FIG. 22A. The ratios of compound 3 to copper of 3:1, 2.5:1, 2:1, 1.5:1, and 1:1, as shown in FIG. 23 were achieved by maintaining the concentration of Cu constant at 10 μM, and varying the concentration of compound 3. The ratios of compound 3 to Cu of 1:1.5, 1:2, 1:2.5, and 1:3, were achieved by maintaining the concentration of compound 3 constant at 10 μM, and varying the concentration of copper.
Other compounds of Formula I, compounds 5, 7, 9 and 13 were also tested for their ability to cleave DNA at a ratio of 2.5:1 to copper (FIG. 23). Ratios of compound 3:copper as indicated, plus concentrations of copper in the absence of compound 3 were used in the DNA cleavage assay as described above.

Series [2] relates to normal cell lines PrEC, HMEC, WI38 and cancer cell lines DU145, MDA-MB-435, HT-29. Description: Cancer cell selectivity, IC90 in normal versus cancer cell lines (XTT). Type of series: cell-based, human. Particulars: average IC90 of all normal / average IC90 of all cancer cell lines, 6 to 7 days. The text has this: An exemplary method of assessing the differential sensitivity between normal and cancer cells for a compound has been described by Vassilev et al. (Anti-Cancer Drug Design (2001) 16:7). This method involves the comparison of IC90 values, i.e. the molar concentration of a test compound required to cause 90% growth inhibition of exponentially growing cells. Thus, the IC90 values for candidate compounds can be evaluated in various cancer cell lines (such as those outlined above) and normal cells (such as HUVEC and/or WI38 cells) and compared. IC90 values can be measured using a variety of standard techniques as known in the art. Cancer cell selectivity is calculated as a ratio between the average IC90 for all normal cell lines and the average IC90 for all cancer cell lines. Compounds with an IC90 ratio (normal/cancer) of >4 are considered to be selective for cancer cells (L. T. Vassilev et al., Anti-cancer Drug Design, 2001, 16: 7-17).
The normal cells lines used were PrEC (prostate), HMEC (breast), and WI38 (lung fibroblast) cell lines and the cancer cells lines were DU145 (prostate), MDA-MB-435 (breast), HT-29 (colon). IC90 values were also determined for the controls doxorubicin and etoposide. The cells were cultured as generally described in Example 13. Various concentrations of the compounds were incubated with the cells for 6 to 7 days, and the number of proliferating cells was measured using the XTT assay. Cancer cell selectivity was calculated as a ratio between the average IC90 for all normal and the average IC90 for all cancer cell lines.
A general note: Formazan colour is commonly taken as a measure of viable cells.

The format of series [3] is in vivo. Particulars: i.p. twice per day for 1 week. The protocol:
To test the sub-acute toxicity of the compounds of Formula I, female mice were injected with the compounds and toxicity was evaluated based on mortality, changes in behaviour, appearance and weight. Briefly, ICR normal female mice (5-6 weeks old; n=33) weighing about 0.020 kg in body weight, were injected with various compounds at 100 mg/kg and 50 mg/kg or with the vehicle alone (Lutrol (M68, micronized)). Groups of 3 ICR female mice were injected with one intra-peritoneal (i.p.) injection of 250 μl of each compound at 4.0 mg/ml twice per day (100 mg/kg) for 1 week (Group I); or with one intra-peritoneal (i.p.) injection of 250 μl of each compound at 2.0 mg/ml twice per day (50 mg/kg) for 1 week (Group II), or with one intra-peritoneal (i.p.) injection of 250 μl of lutrol vehicle control twice per day for 1 week (Control Group).
The compounds to be tested were prepared to provide enough for one week at concentrations of 4.0 mg/ml and 2.0 mg/ml. Briefly, 50 mg of each compound was dissolved in 1.25 ml of 100% DMSO and diluted with 6.25 ml of Lutrol (30% in water) and 5 ml water, to prepare a solution of 4 mg/ml compound in 15% Lutrol in water. Next, 4 ml of each prepared solution was further diluted with 4 ml of 15% Lutrol in water to provide the 2.0 mg/ml solution of each compound. For the vehicle control solution, 8 ml of 15% Lutrol in water was prepared. Compounds at concentrations of 4.0 mg/ml and 2.0 mg/ml and the vehicle control were administered as described above.

Series [4] deals with human colon carcinoma HT-29 cells. Kind of series: XTT cell proliferation assay, HT-29. Particulars: Homo sapiens, HT-29, XTT, read-out: IC50. Format: cell-based. The protocol:
The ability of compounds of Formula I to inhibit the proliferation of human colon carcinoma HT-29 cells was tested as follows. HT-29 colon carcinoma cells used in this example and subsequent examples were maintained as a monolayer in a growth medium; McCoy's 5A modified medium (Sigma, St. Louis, Mo.), supplemented with 2 mM L-glutamine (Gibco, Grand Island, N.Y.), 10% fetal bovine serum (FBS) (Multicell, WISENT Inc. St-Bruno, QC), antibiotic-antimycotic (Multicell), at 37° C. in a 5% CO2-humidified incubator. Cells were transferred onto 150 mm tissue culture plates and grown until sub-confluency (70-80%) prior to their use. The in vitro antiproliferative activity of compounds was evaluated by incubating the cells with varying concentrations of the compounds as shown in Table 1 for 6-7 days. The efficacy of these compounds in this cell proliferation assay was measured based in the ability of live cells to reduce the tetrazolium salt XTT to orange colored compounds of formazan (XTT cell proliferation kit II, Roche Applied Science, Montreal, QC).
The ability of compounds of Formula I to inhibit the proliferation of human colon carcinoma HT-29 cells was tested as described above in Example 13.
Cell growth inhibition IC50 (μM) by compounds of Formula I was tested on various cancer cell types by XTT cell proliferation assay. The growth inhibitory effects of the compounds of Formula I as shown below for the melanoma cell line SK-MEL-2 were reproducible by Lorus Therapeutics Inc.

Where two headings read alike, the source gives them in different places.

The term IC50 denotes the concentration that gives 50% inhibition. As to `c1ccc(-c2[nH]c3ccccc3c2-c2nc3c4cccnc4c4ncccc4c3[nH]2)cc1` [Compound 9], the “cleavage of plasmid DNA” value in series [1] was “capable of cleaving DNA”. Further, in series [2], the “Normal/cancer IC90 ratio” value is more than 5.6. Besides, the Sub-acute toxicity entry was “−” in series [3] (50 mg/Kg) and “+” in series [3] (100 mg/Kg). Also, the IC50 in series [4] (6-7 days, Table 3) is 300 nM; in series [4] (as Example 13, Table 7) it was 0.3 µg/mL.

On to `COc1cccc2c1C(=O)c1c(O)c3c(c(O)c1C2=O)C[C@@](O)(C(=O)CO)C[C@@H]3O[C@H]1C[C@H](N)[C@H](O)[C@H](C)O1` [Doxorubicin, doxorubicin, reference compound], for which the “Normal/cancer IC90 ratio” value in series [2] worked out at 5.6.

Take `COc1cc([C@@H]2c3cc4c(cc3[C@@H](O[C@@H]3O[C@@H]5CO[C@@H](C)O[C@H]5[C@H](O)[C@H]3O)[C@H]3COC(=O)[C@H]23)OCO4)cc(OC)c1O` [Etoposide, etoposide, reference compound]: the “Normal/cancer IC90 ratio” value in series [2] is recorded as more than 5.0.
